In PMC10717410, “TMC4 is a novel chloride channel involved in high-concentration salt taste sensation” (The Journal of Physiological Sciences : JPS, 2021):
Counter-ions that a name gives are not always drawn.

Columns and labels:
Assay type in all cases: cell-based
[1] = molecular target: T1, mouse TMC4 (mTMC4) (Mus musculus, UniProt Q7TQ65); assay: whole-cell patch clamp, transfected HEK293T; conditions: pH 7.4 bath, pH 7.2 pipette, about 25 °C
T1 construct: coding region from circumvallate papillae cDNA in pIRES2-AcGFP1 with IRES and GFP removed; transiently expressed in HEK293T with separate EGFP plasmid
T1 sequence (Q7TQ65 1-694): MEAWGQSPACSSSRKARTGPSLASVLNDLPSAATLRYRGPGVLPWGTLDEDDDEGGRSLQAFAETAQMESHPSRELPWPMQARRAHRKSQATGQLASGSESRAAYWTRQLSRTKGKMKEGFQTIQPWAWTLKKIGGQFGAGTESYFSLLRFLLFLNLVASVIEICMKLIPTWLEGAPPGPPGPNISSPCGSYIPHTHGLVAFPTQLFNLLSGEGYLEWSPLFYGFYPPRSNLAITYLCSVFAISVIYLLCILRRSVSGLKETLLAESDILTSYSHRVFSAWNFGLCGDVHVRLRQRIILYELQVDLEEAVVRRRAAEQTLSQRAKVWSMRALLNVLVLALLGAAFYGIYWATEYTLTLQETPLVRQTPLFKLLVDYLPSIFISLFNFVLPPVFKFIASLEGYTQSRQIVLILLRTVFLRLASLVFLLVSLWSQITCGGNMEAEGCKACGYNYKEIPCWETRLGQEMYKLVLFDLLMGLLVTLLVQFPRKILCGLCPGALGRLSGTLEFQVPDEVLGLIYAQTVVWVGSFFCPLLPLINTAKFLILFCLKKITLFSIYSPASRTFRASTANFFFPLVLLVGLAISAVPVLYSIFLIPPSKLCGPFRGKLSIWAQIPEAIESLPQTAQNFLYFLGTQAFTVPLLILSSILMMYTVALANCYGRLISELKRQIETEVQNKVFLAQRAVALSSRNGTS

[2] = molecular target: T1, mouse TMC4 (mTMC4); assay: whole-cell patch clamp, bath chloride fully replaced by gluconate; conditions: permeating anion; NMDG-Cl pipette; pH 7.4 bath, about 25 °C
[3] = molecular target: T2, human TMC4 (hTMC4) (Homo sapiens, UniProt Q7Z404); assay: whole-cell patch clamp, step pulses, transfected HEK293T; conditions: pH 7.4 bath, pH 7.2 pipette, about 25 °C; channel blocker
T2 construct: coding region of purchased cDNA (Dharmacon) in pIRES2-AcGFP1 with IRES and GFP removed; transiently expressed in HEK293T
T2 sequence (Q7Z404 1-712): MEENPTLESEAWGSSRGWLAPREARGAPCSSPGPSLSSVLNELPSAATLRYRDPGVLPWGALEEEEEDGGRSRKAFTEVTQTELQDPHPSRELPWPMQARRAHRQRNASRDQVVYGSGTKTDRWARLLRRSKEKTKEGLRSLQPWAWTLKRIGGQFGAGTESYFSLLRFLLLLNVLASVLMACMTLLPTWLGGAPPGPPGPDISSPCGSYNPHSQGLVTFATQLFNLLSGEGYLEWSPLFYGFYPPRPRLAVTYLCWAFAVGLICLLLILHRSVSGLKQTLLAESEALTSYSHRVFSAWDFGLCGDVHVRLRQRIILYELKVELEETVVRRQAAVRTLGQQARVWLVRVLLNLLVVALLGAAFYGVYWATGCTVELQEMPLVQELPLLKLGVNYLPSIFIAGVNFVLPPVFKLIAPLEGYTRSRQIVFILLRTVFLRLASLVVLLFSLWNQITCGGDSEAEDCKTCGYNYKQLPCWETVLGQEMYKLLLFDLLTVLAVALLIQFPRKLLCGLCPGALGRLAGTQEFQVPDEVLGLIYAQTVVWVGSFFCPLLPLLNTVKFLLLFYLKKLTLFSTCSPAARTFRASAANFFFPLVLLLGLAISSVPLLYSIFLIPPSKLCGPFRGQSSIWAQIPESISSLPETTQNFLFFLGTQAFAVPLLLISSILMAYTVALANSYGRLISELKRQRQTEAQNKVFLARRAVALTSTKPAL

[4] = molecular target: T1, mouse TMC4 (mTMC4); assay: as above; conditions: NMDG-Cl pipette, pH 7.4 bath, pH 7.2 pipette, about 25 °C, channel blocker

In the case of `CC(C)(C)C1CCc2c(sc(NC(=O)c3ccco3)c2C(=O)O)C1` (centres unmarked) [CaCC(inh)-A01], the “Iblocker/Icontrol at + 60 mV” value [1] is reported as “mTMC4-mediated currents were inhibited by CaCC(inh)-A01”.
In the case of `O=C(O)[C@H](O)[C@@H](O)[C@H](O)[C@H](O)CO` [gluconate], the “whole-cell patch clamp, bath chloride fully replaced by gluconate” value [2] is reported as “outward currents did not disappear even when the bath solution was completely substituted with Na-gluconate”.
With `CNCCC(Oc1ccc(C(F)(F)F)cc1)c1ccccc1` (centres unmarked) [Fluoxetine hydrochloride] the “Iblocker/Icontrol at + 60 mV” value ([1]; 100 μM compound) was “Fluoxetine hydrochloride and tannic acid also inhibited mTMC4-mediated currents”.
`O=C(O)c1cc([N+](=O)[O-])ccc1NCCCc1ccccc1` [NPPB, 5-nitro-2-(3-phenylpropylamino) benzoic acid] was tested, and the current reduction [3] was “hTMC4) also functions as a Cl^− channel with a similar voltage dependency and is inhibited by NPPB” and the “Iblocker/Icontrol at + 60 mV” value [4] was “mTMC4-mediated currents were strongly inhibited by the NPPB”.
